Measured values reported in patent US20110003844A1, “REGULATION OF CARDIAC CONTRACTILITY AND HEART FAILURE PROPENSITY” (Children's Hospital Medical Center, priority 2003, published 2011).
Entries after “also recorded” stand apart in the source; their conditions may differ. Where two headings read alike, the source gives them in different places.

Columns and labels:
[1] = tested on: adult wildtype mouse hearts; test: ex vivo working heart preparation, Ro-32-0432 infusion
Protocol: Mice from all genotypes or treatment groups were anesthetized with isoflurane, and echocardiography was performed using a Hewlett Packard 5500 instrument with a 15-MHZ microprobe. Echocardiographic measurements were taken on M-mode in triplicate from four separate mice per group. The isolated ejecting mouse heart preparation used in the present study has been described in detail previously (Gulick et al. (1997) Circ. Res. 80:655-664), as was the close-chested working heart model employed here (Lorenz et al. (1997) Am. J. Physiol. 272:H1137-H1146).
The relatively selective PKCα/β inhibitory compound Ro-32-0432 [2-{8-[(Dimethylamino)methyl]-6,7,8,9-tetrahydropyrido[1,2-a]indol-3-yl}-3-(1-methylindol-3-yl)maleimide, HCl Salt] [3-{8-[(Dimethylamino)methyl]-6,7,8,9-tetrahydropyrido[1,2-a]indol-10-yl}-4-(1-methylindol-3-yl)-1H -pyrrole-2,5-dione, HCl Salt] was used as a means of directly examining the effects of acute PKCα inhibition on cardiac function and contractility using an ex vivo working heart preparation. The working heart preparation separates the inherent pump function of the heart from potential alterations in total vascular resistance as might occur if the drug were infused in vivo.
Working adult wildtype mouse hearts were infused with vehicle control (10% DMSO) or Ro-32-0432 in 10% DMSO at concentrations ranging between 4×10^−10 through 4'10^−6M. Four animals were analyzed in the Ro-32-0432 group and compared with three animals in the vehicle control group. […] The average heart rate of the vehicle and drug treated groups was 351+/=3 and 292+/−6 beats per minute, respectively. […] The approximate 20% change in acute contractile performance in the Ro-32-0432 treated group is similar to the increase in cardiac function observed in PKCα null mice.

[2] = tested on: normal Sprague-Dawley and Lewis rats; test: in vivo cardiac contractility and hemodynamics in anesthetized normal rats; set-up: species or system rat
Protocol: Selected PKCα inhibitors are evaluated in both naive rats and rats with myocardial infarction (MI) for effects on cardiac contractility and hemodynamics. The effects of inhibitors on cardiac contractility and hemodynamics are evaluated in naïve and MI rats as follows. The animals are anesthetized with isoflurane. A femoral artery is isolated and cannulated for the measurement of systemic blood pressure. A jugular vein is isolated and cannulated for the intravenous infusion of inhibitor. The right carotid artery is isolated and a Millar conductance catheter is inserted to the left ventricle (LV) of the heart. The LV systolic pressure, end-diastolic pressure, +maximum dP/dt, −minimum dP/dt, and heart rate are derived from the LV pressure waveform. Mean arterial blood pressure is derived from the systemic blood pressure waveform. Data are recorded continuously and derived using computerized data acquisition software (Notocord or Powerlab). After a period of stabilization, PKCα inhibitors are infused at the following infusion doses in naïve rats: 0.1, 0.3, 1.0, 3.0, 10, 30, 100, 300 and 1000 nmol/kg/min. The infusion of each dose is allowed to run for at least five minutes. In MI rats, the infusion doses are as follows: 10, 30, 100, 300, and 1000 nmol/kg/min for at least five minutes. Equivalent infusion volumes are administered to separate, vehicle-control naïve and MI animals. At the end of the test infusions, 5.0 μg/kg/min of dobutamine is infused.

PKC isoforms = conditions: cited from earlier work
PKCα−/− hearts = test: ex vivo working heart preparation, acute PMA infusion, PKCα null hearts; set-up: species or system mouse
Protocol: (§1) Hearts were isolated from four wild-type and four PKCα −/− (PKCα null) transgenic mice. The isolated hearts were infused with PMA at 9 different concentrations ranging from 8×10^−11 through 8×10^−7 M. Acute PMA infusion of each concentration occurred for a 7 minute period. The hearts were measured for maximal and minimal dP/dt in systole and diastole respectively.

[3] = tested on: isolated cardiac myocytes and whole guinea-pig hearts; conditions: cited from earlier work
PKCα = target: T1, PKCα (Rattus norvegicus, UniProt P05696); test: confocal immunohistochemistry of PKCα localization in adult cardiomyocytes; type: cell-based; conditions: adult rat cardiomyocytes in culture, acute PMA stimulation
T1 construct: confocal micrographs of PKCα protein localization in adult rat cardiac myocytes at baseline (PKCα) or after PMA; endogenous in cells; host or cells: adult rat cardiomyocytes in culture

PKCα-GFP = test: translocation of PKCα-GFP indicator polypeptide, confocal microscopy; type: cell-based; conditions: neonatal rat cardiomyocytes, PMA 60 minutes
Protocol: A PKCα indicator was prepared by operably linking a nucleotide sequence encoding PKCα to a nucleotide sequence encoding green fluorescence protein (GFP). An expression cassette comprising the PKCα-GFP nucleotide sequence was prepared. Adenovirus comprising the PKCα-GFP expression cassette was prepared.
Neonatal rat cardiomyocytes were cultured in plastic dishes and incubated until the appropriate density was reached. The cardiomyocytes were infected with an adenovirus encoding PKCα-GFP. The cultures were incubated for 24 hours. After 24 hours the cells were incubated with either DMSO alone (the vehicle treatment) or DMSO and PMA for 60 minutes. The cells were fixed and examined by confocal microscopy.

[4] = tested on: isolated ventricular myocytes from adult rats; conditions: 10^−7 M, 1 Hz, 1 mM calcium; cited from earlier work
wildtype mouse hearts = test: ex vivo working heart preparation, acute PMA infusion, wildtype hearts
Protocol: as §1

[5] = tested on: isolated chicken ventricular myocytes; conditions: 1 μM drug; cited from earlier work
MI rats = test: in vivo cardiac contractility in anesthetized rats with myocardial infarction; set-up: species or system rat
Protocol: Selected PKCα inhibitors are evaluated in both naive rats and rats with myocardial infarction (MI) for effects on cardiac contractility and hemodynamics.
Male, Sprague-Dawley or Lewis rats weighing between 225-500 gm are anesthetized with isoflurane and an MI is induced as follows. A thoracotomy at the fourth or fifth intercostal space is done, the heart is exposed and the pericardium is opened. A 5-0 suture is placed around the left descending coronary artery 2-4 mm from its origin and permanently tied. The ribs, muscle and skin are separately closed and the animal is allowed to recover. Twenty to twenty-three weeks after surgery the animals are used to evaluate the effects of PKCα inhibitors on cardiac contractility and hemodynamics.
The effects of inhibitors on cardiac contractility and hemodynamics are evaluated in naïve and MI rats as follows. The animals are anesthetized with isoflurane. A femoral artery is isolated and cannulated for the measurement of systemic blood pressure. A jugular vein is isolated and cannulated for the intravenous infusion of inhibitor. The right carotid artery is isolated and a Millar conductance catheter is inserted to the left ventricle (LV) of the heart. […] Data are recorded continuously and derived using computerized data acquisition software (Notocord or Powerlab). […]

[6] = 1000 nmol/kg/min i.v. infusion, 5 min, n=3

For “2-{8-[(Dimethylamino)methyl]-6,7,8,9-tetrahydropyrido[1,2-a]indol-3-yl}-3-(1-methylindol-3-yl)maleimide, HCl Salt [Ro-32-0432]”, the “change in acute contractile performance” value ([1]; Ro-32-0432 treated group, similar to PKCα null mice) was ~20%, the “average heart rate of drug treated group” value ([1]; during infusion, 295+/−26 before treatment) was 292+/−6 beats per minute and the “increase in acute contractile function, measured as maximum dP/dt” value ([1]; infused at 4×10^−10 to 4×10^−6 M, 7 min per concentration, values summated, average dosage approx 1×10^−8 M, P<0.05) was 20%. The “increase in left ventricular pressure developed” value ([1]; infused at 4×10^−10 to 4×10^−6 M, values summated, average dosage approx 1×10^−8 M, P<0.05) was 20% and the “acute cardiac contractility upon infusion (FIG. 38)” value ([1]; infusion vs baseline, p<0.05) was “statistically significant increase”.

In the case of CN(C)C[C@@H]1CCn2cc(c3ccccc32)C2=C(C(=O)NC2=O)c2cn(c3ccccc23)CCO1 [LY333531], the “maximum dP/dt increase compared to baseline” value [2, 6] is reported as 28%, the “minimum dP/dt increase compared to baseline” value [2, 6] is reported as 17% and the heart rate ([2]; 1000 nmol/kg/min, baseline 315±17, not statistically significant) is reported as 294±8 beats per minute.

For CNC[C@@H]1CCn2cc(c3ccccc32)C2=C(C(=O)NC2=O)c2cn(c3ccccc23)CCO1 [LY338522], the “inhibition of the PKC isoforms” value (PKC isoforms) is listed as “effective in inhibiting the PKC isoforms”.

For CCCCCCCCCCCCCC(=O)O[C@@H]1[C@@H](C)[C@@]2(O)[C@@H](C=C(CO)C[C@]3(O)C(=O)C(C)=C[C@@H]23)[C@@H]2C(C)(C)[C@]12OC(C)=O [PMA, phorbol myristate acetate], the functional performance (PKCα−/− hearts; highest concentrations of PMA) is listed as “only a mild depression in functional performance”, the inotropic effect (PKCα−/− hearts; low doses of PMA) is listed as “immediate positive inotropic effect” and the inotropic response ([3]; 10^−12 M PMA) is listed as “significant positive inotropic response”. For the same compound, the inotropic response ([3]; concentrations higher than 10^−10 M PMA) was “negative inotropic response”, the PKCα protein localization (PKCα) was “rapid translocation” and the PKCα-GFP localization (PKCα-GFP) was “highly localized and punctate staining pattern; also recorded: robust redistribution of PKCα-GFP”. The “twitch amplitude, of control” value [4] was “approximately 60%”, the “contractile performance (Maximum dP/dt or Minimum dP/dt)” value (wildtype mouse hearts; 8×10^−11 through 8×10^−9 M) was “essentially no effect” and the functional performance (wildtype mouse hearts; concentrations higher than 8×10^−9 M) was “marked decrease in functional performance”. For the same compound, the “maximum decrease in the amplitude of cell shortening” value [5] was 54%.

For [H]/N=C(/N)SCCCn1cc(C2=C(c3cn(C)c4ccccc34)C(=O)NC2=O)c2ccccc21 [Ro-31-8220], the “inotropic benefit compared with dobutamine” value (MI rats; dobutamine 5.0 μg/kg/min for 5 minutes) was “greater than that seen with dobutamine” and the “percent increase in maximum dP/dt from baseline” value (MI rats; dose dependent i.v. infusion 10-1000 nmol/kg/min, significance (P<0.05) at 300 nmol/kg/min, n=4) was 21%.
